# Measurements taken from US7632819B1, “Methods and compositions for inhibiting PKC delta cleavage for treatment and prevention of neurodegeneration and apoptosis” (Iowa State University Research Foundation, Inc., priority 2004, dated 2009).
# Where a SMILES comes first, the peptide text is derived from it. The star is where a group is joined. Cbz = O=C(OCc1ccccc1)*; CH2F = FC*
# Tested on: PKCδ
# Assay: Immunoprecipitation kinase assay (histone H1 phosphorylation) in N27 cells
# Assay type: cell-based, rat
# Details: inhibitor 50 μM
# Excerpt: Chemicals. Protease cocktail, ATP, protein-A-sepharose, protein-G-sepharose and anti-â-actin antibody were obtained from Sigma-Aldrich (St. Louis, Mo.); mouse tyrosine hydroxylase antibody was purchased from Chemicon (Temecula, Calif.); the rabbit polyclonal antibody for tyrosine hydroxylase was obtained from Calbiochem Bioscience, Inc. (King of Prussia, Pa.); rabbit PKCδ antibody was purchased from Santa Cruz Biotechnology, Inc. (Santa Cruz, Calif.); anti-rabbit and anti-mouse secondary antibodies and the ECL chemiluminescence kit were purchased from Amersham Pharmacia Biotech. (Piscataway, N.J.). Alexa 488 conjugated antirabbit/mouse, Cy3 conjugated anti-rabbit/mouse antibody and Hoechst 33342 were purchased from Molecular Probes, Inc. (Eugene, Oreg.). [ã-32P]ATP was purchased from Perkin Elmer Life Science Products (Boston, Mass.). The Bradford protein assay kit was purchased from Bio-Rad Laboratories (Hercules, Calif.). RPMI, fetal bovine serum, -glutamine, penicillin, and streptomycin were purchased from Invitrogen (Gaithersburg, Md.). Quantity One 4.2.0 software was purchased from Bio-Rad. Design and synthesis of z-DIPD-fmk (SEQ ID NO:5). To develop a cell permeable peptide inhibitor to specifically block PKCδ cleavage, we designed the tetrapeptide Asp-Ile-Pro-Asp (DIPD) (SEQ ID NO:5) corresponding to position 324-327 in rat PKCδ cDNA representing the caspase-3 cleavage site. Since this peptide is directed against the caspase-3 cleavage site of PKCδ, it should prevent the proteolytic cleavage and activation of PKCδ mediated by caspase-3. The custom synthesis of the tetrapeptide Z-Asp(OMe)-Ile-Pro-Asp(OMe)-FMK (SEQ ID NO:5) was performed at MP Biomedicals (Irvine, Calif.), a quality company that specializes in developing cell permeable peptide inhibitors directed against apoptosis cell signaling molecules. Briefly, the synthesis was performed with the reaction of Boc-D(OMe)-OH with MBFM (Magnesium benzyl fluoromalonate) to produce Beta-Keto fluoroester, followed by hydrogenation with Pd/c to produce Boc-D(OMe)FK, which was converted into Tfa salt using trifluoroacetic acid. Coupling of Tfa salt with Z-D(OMe)—I—P—OH in DMF with HOBT, HBTU DIEA and workup produced a crude product which was purified by column chromatography over silica gel. Elution with EtOAC:MeOH 95:5 gave pure fractions which were mixed and dried. Crystallization with EtOAC/Hexane, filtration and drying produced the pure product. Animals. Time-pregnant C57/bL mice were housed under standard conditions: constant temperature (22±1° C.), humidity (relative, 30%) and a 12-h light/dark cycle with free access to food and water. The animals and protocol procedures were approved and supervised by the Committee on Animal Care (COAC) at Iowa State University. Cell culture. […]
compound,measurement,setting,value
"CC[C@H](C)[C@H](NC(=O)[C@H](CC(=O)OC)NC(=O)OCc1ccccc1)C(=O)N1CCC[C@H]1C(=O)N[C@@H](CC(=O)OC)C(=O)CF [z-DIPD-fmk, Z-Asp(OMe)-Ile-Pro-Asp(OMe)-FMK] (Cbz-D(OMe)IPD(OMe)-CH2F)",effect on 6-OHDA-induced PKCδ kinase activity,100 μM 6-OHDA 24 hr,almost completely suppressed
same,effect on MPP+-induced PKCδ kinase activity,300 μM MPP+ 36 hr,almost completely suppressed
